These are literature values, as cited in patent publication US9902985B2 (priority 2012, dated 2018).

The subject of data set [1] is Gram-positive organisms. The conditions noted are these: fold more potent than vancomycin.

Read-outs that look alike come from different tables or passages of the source.

Take `C=C(C/C=C(\C)CCC=C(C)C)CCC(C)(C)/C=C/CC/C(C)=C/CO[C@@H](COP(=O)(O)O[C@H]1O[C@H](C(N)=O)[C@@](C)(O)[C@H](OC(N)=O)[C@H]1O[C@@H]1O[C@H](CO[C@@H]2O[C@H](CO)[C@@H](O)[C@H](O)[C@H]2O)[C@@H](O[C@@H]2O[C@H](C)[C@@H](O[C@@H]3O[C@H](C(=O)NC4=C(O)CCC4=O)[C@H](O)[C@H](O)[C@H]3O)[C@H](O)[C@H]2NC(C)=O)[C@H](O)[C@H]1NC(C)=O)C(=O)O` [Moenomycin A]: the “absorption upon oral administration” value is reported as “relatively poor”. For the same compound, the “potency relative to vancomycin” value in data set [1] is recorded as “a thousand times more potent”. Further, the “potency relative to vancomycin” value in data set [1] (listed as moenomycin) was 10-1000 times.
